# Active and inactive are the calls of the source. The calls are words filed in the database; no cut-off is given here.
# Legend:
# J774.A1 [1] = assay: Antiproliferative activity against mouse J774A.1 cells assessed as change in cell proliferation at 100 uM after 72 hrs by crystal violet staining based assay relative to control; format: functional
# RAW264.7 [2] = assay: Antiproliferative activity against mouse RAW264.7 cells assessed as change in cell proliferation at 100 uM after 72 hrs by crystal violet staining based assay relative to control; format: functional
# MG-63 [3] = assay: Antiproliferative activity against human MG63 cells assessed as change in cell proliferation at 100 uM after 72 hrs by crystal violet staining based assay relative to control; format: functional
# PC-3 [4] = assay: Antiproliferative activity against human PC3 cells assessed as change in cell proliferation at 100 uM after 72 hrs by crystal violet staining based assay relative to control; format: functional
# J774.A1 [5] = assay: Antiproliferative activity against mouse J774A.1 cells assessed as reduction in cell viability at 100 uM after 72 hrs by WST8 assay; format: functional, cell-based
# RAW264.7 [6] = assay: Antiproliferative activity against mouse RAW264.7 cells assessed as reduction in cell viability at 100 uM after 72 hrs by WST8 assay; format: functional, cell-based
# MG-63 [7] = assay: Antiproliferative activity against human MG63 cells assessed as reduction in cell viability at 100 uM after 72 hrs by WST8 assay; format: functional, cell-based
# PC-3 [8] = assay: Antiproliferative activity against human PC3 cells assessed as reduction in cell viability at 100 uM after 72 hrs by WST8 assay; format: functional, cell-based
# RAW264.7 [9] = assay: Antiproliferative activity against RANKL-differentiated mouse RAW264.7 cells assessed as reduction in cell viability at 100 uM after 72 hrs by CCK8 assay; format: functional, cell-based
# RAW264.7 [10] = assay: Inhibition of RANKL-induced osteoclastogenesis in mouse RAW264.7 cells after 72 hrs by TRAP staining based microscopic analysis; format: functional, cell-based
# Hydroxyapatite = assay: Binding affinity to hydroxyapatite at 100 uM using sodium salt form of compound after 5 mins by ESI/MS analysis
# MC3T3-E1 [11] = assay: Induction of mineralization in mouse MC3T3-E1 cells at 30 to 50 nM after 10 to 15 days by alizarin red dye based assay; format: functional, cell-based
# Bone marrow cell [12] = assay: Induction of mineralization in C57BL mouse bone marrow cells at 50 nM supplemented with fresh medium containing compound every 3 days for 10 to 15 days by alizarin red dye based assay; format: functional
# Bone marrow cell [13] = assay: Induction of mineralization in C57BL mouse bone marrow cells co-cultured with human PC3 cells at 50 to 100 nM supplemented with fresh medium containing compound every 3 days for 10 to 15 days by alizarin red dye based assay; format: functional
# Bone marrow cell [14] = assay: Induction of cell proliferation in C57BL mouse bone marrow cells at 100 nM after 72 hrs by crystal violet staining based assay; conditions: 0.1 µM
# Bone marrow cell [15] = assay: Cytotoxicity against C57BL mouse bone marrow cells assessed as decrease in cell proliferation at 100 to 500 uM after 72 hrs by crystal violet staining based assay; design: scale not given: the % may be the effect or the level left
# MC3T3-E1 [16] = assay: Induction of mineralization in mouse MC3T3-E1 cells at >500 nM after 10 to 15 days by alizarin red dye based assay; format: functional, cell-based
# Bone marrow cell [17] = assay: Induction of mineralization in C57BL mouse bone marrow cells at >50 nM supplemented with fresh medium containing compound every 3 days for 10 to 15 days by alizarin red dye based assay; format: functional
# Bone marrow cell [18] = assay: Induction of mineralization in C57BL mouse bone marrow cells co-cultured with human PC3 cells at >100 nM supplemented with fresh medium containing compound every 3 days for 10 to 15 days by alizarin red dye based assay; format: functional
# J774.A1 [19] = assay: Antiproliferative activity against mouse J774A.1 cells assessed as reduction in cell proliferation at 500 uM after 72 hrs by crystal violet staining based assay; format: functional
# RAW264.7 [20] = assay: Antiproliferative activity against mouse RAW264.7 cells assessed as reduction in cell proliferation at 500 uM after 72 hrs by crystal violet staining based assay; format: functional
# MG-63 [21] = assay: Antiproliferative activity against human MG63 cells assessed as reduction in cell proliferation at 500 uM after 72 hrs by crystal violet staining based assay; format: functional
# PC-3 [22] = assay: Antiproliferative activity against human PC3 cells assessed as reduction in cell proliferation at 500 uM after 72 hrs by crystal violet staining based assay; format: functional
# [23] = molecular target: T1, Farnesyl pyrophosphate synthase (Homo sapiens) (UniProt P14324); assay: Inhibition of recombinant human C-terminal His6-tagged FPPS expressed in Escherichia coli BL21 at 100 uM using DMAPP and IPP as substrates pretreated for 15 mins followed by substrates addition and measured after 1 hr by colorimetric method relative to control
# T1 sequence (whole entry): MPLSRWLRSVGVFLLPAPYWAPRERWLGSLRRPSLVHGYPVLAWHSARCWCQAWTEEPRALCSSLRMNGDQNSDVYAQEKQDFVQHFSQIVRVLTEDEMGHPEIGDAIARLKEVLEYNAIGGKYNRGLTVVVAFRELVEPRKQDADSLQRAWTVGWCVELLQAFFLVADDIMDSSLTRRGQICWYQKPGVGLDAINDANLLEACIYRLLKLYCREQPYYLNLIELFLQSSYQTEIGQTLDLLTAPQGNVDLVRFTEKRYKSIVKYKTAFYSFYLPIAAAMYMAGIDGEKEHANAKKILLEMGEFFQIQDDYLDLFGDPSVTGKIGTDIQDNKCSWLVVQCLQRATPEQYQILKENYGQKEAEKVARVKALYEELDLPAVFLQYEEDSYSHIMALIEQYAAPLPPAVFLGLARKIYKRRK
# [24] = molecular target: T1, Farnesyl pyrophosphate synthase (Homo sapiens); assay: Inhibition of recombinant human C-terminal His6-tagged FPPS expressed in Escherichia coli BL21 at 1 to 10 uM using DMAPP and IPP as substrates pretreated for 15 mins followed by substrates addition and measured after 1 hr by colorimetric method relative to control
# [25] = molecular target: T2, Geranylgeranyl pyrophosphate synthase (Homo sapiens) (UniProt O95749); assay: Inhibition of recombinant human C-terminal His6-tagged GGPPS expressed in Escherichia coli BL21 at 1 to 10 uM using IPP and FPP as substrates pretreated for 15 mins followed by substrates addition and measured after 1 hr by colorimetric method relative to control
# T2 sequence (whole entry): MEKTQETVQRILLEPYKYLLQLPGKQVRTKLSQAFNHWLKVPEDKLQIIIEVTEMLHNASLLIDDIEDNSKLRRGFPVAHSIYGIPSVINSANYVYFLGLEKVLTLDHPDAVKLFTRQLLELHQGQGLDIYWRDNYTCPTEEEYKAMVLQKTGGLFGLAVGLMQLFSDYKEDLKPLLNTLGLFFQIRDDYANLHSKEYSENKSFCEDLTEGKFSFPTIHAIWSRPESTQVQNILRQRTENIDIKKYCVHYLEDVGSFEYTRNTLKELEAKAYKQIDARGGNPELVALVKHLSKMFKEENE
# [26] = molecular target: T3, Farnesyl pyrophosphate synthase (Homo sapiens, UniProt P14324); assay: Inhibition of recombinant human C-terminal His6-tagged FPPS expressed in Escherichia coli BL21 using DMAPP and IPP as substrates pretreated for 15 mins followed by substrates addition and measured after 1 hr by colorimetric method
# T3 sequence (P14324 whole entry): T1 sequence (whole entry)
# Bone marrow cell [27] = assay: Induction of cell proliferation in C57BL mouse bone marrow cells at 30 nM after 72 hrs by crystal violet staining based assay; conditions: 0.03 µM
# Bone marrow cell [28] = assay: Cytotoxicity against C57BL mouse bone marrow cells assessed as effect on cell proliferation at 0.03 to 500 uM after 72 hrs by crystal violet staining based assay
# MG-63 [29] = assay: Antiproliferative activity against human MG63 cells assessed as reduction in cell viability at 2.14 uM after 72 hrs by WST8 assay; format: functional, cell-based
# PC-3 [30] = assay: Antiproliferative activity against human PC3 cells assessed as reduction in cell viability at 2.14 uM after 72 hrs by WST8 assay; format: functional, cell-based
smiles,measurement,setting,value
O.O=P(O)(O)C(O)(Cn1ccnc1)P(=O)(O)O [ZOLEDRONIC ACID],Activity,J774.A1 [1],-60.657%
same,Activity,RAW264.7 [2],-54.523%
same,Activity,MG-63 [3],-27.901%
same,Activity,PC-3 [4],-28.408%
same,Activity,J774.A1 [5],Active
same,Activity,RAW264.7 [6],Active
same,Activity,MG-63 [7],Active
same,Activity,PC-3 [8],Active
same,Activity,RAW264.7 [9],Active
same,inhibition,RAW264.7 [10],Active
same,Activity,Hydroxyapatite,> 95%
same,Activity,MC3T3-E1 [11],Active
same,Activity,Bone marrow cell [12],Active
same,Activity,Bone marrow cell [13],Active
same,Activity,Bone marrow cell [14],Toxic
same,Activity,Bone marrow cell [15],20%
same,Activity,MC3T3-E1 [16],inactive
same,Activity,Bone marrow cell [17],inactive
same,Activity,Bone marrow cell [18],inactive
O=P(O)(O)C(O)(CNc1ncccn1)P(=O)(O)O,Activity,J774.A1 [1],-31.512%
same,Activity,RAW264.7 [2],-47.365%
same,Activity,MG-63 [3],-16.295%
same,Activity,PC-3 [4],-29.682%
same,Activity,J774.A1 [19],inactive
same,Activity,RAW264.7 [20],inactive
same,Activity,MG-63 [21],inactive
same,Activity,PC-3 [22],inactive
same,Activity,J774.A1 [5],Active
same,Activity,RAW264.7 [6],Active
same,Activity,MG-63 [7],Active
same,Activity,PC-3 [8],Active
same,Activity,RAW264.7 [9],Active
same,inhibition,RAW264.7 [10],Active
same,inhibition,[23],96%
same,inhibition,[24],68 to 79%
same,inhibition,[25],68 to 79%
same,IC50,[26],0.31 µM
same,Activity,Hydroxyapatite,90%
same,Activity,MC3T3-E1 [11],Active
same,Activity,Bone marrow cell [12],Active
same,Activity,Bone marrow cell [13],Active
same,Activity,Bone marrow cell [27],Toxic
same,Activity,MC3T3-E1 [16],inactive
same,Activity,Bone marrow cell [17],inactive
same,Activity,Bone marrow cell [18],inactive
NCCCC(O)(P(=O)(O)O)P(=O)(O)O [ALENDRONIC ACID],Activity,J774.A1 [5],Active
same,Activity,RAW264.7 [6],Active
same,Activity,MG-63 [7],Active
same,Activity,PC-3 [8],Active
same,Activity,RAW264.7 [9],Active
same,inhibition,RAW264.7 [10],Active
same,Activity,Bone marrow cell [12],Active
same,Activity,Bone marrow cell [13],inactive
same,Activity,Bone marrow cell [28],Non-Toxic
same,Activity,MC3T3-E1 [16],inactive
same,Activity,Bone marrow cell [17],inactive
same,Activity,Bone marrow cell [18],inactive
O=P(O)(O)C(O)(CNc1ncnc2ccccc12)P(=O)(O)O,Activity,J774.A1 [1],-27.398%
same,Activity,RAW264.7 [2],-34.592%
same,Activity,MG-63 [3],-15.397%
same,Activity,PC-3 [4],-9.488%
same,Activity,J774.A1 [19],inactive
same,Activity,RAW264.7 [20],inactive
same,Activity,MG-63 [21],inactive
same,Activity,PC-3 [22],inactive
same,inhibition,[23],52%
same,inhibition,[24],68 to 79%
same,inhibition,[25],68 to 79%
same,Activity,Hydroxyapatite,81%
CN[C@@H]1C[C@H]2O[C@@](C)([C@@H]1OC)n1c3ccccc3c3c4c(c5c6ccccc6n2c5c31)C(=O)NC4,Activity,MG-63 [29],Active
same,Activity,PC-3 [30],Active
O=P(O)(O)C(O)(Cc1cccnc1)P(=O)(O)O [RISEDRONIC ACID],Activity,J774.A1 [5],Active
same,Activity,RAW264.7 [6],Active
same,Activity,MG-63 [7],Active
same,Activity,PC-3 [8],Active
same,Activity,RAW264.7 [9],Active
same,inhibition,RAW264.7 [10],Active
same,Activity,Hydroxyapatite,87%
same,Activity,Bone marrow cell [12],Active
same,Activity,Bone marrow cell [13],inactive
same,Activity,Bone marrow cell [28],Non-Toxic
same,Activity,MC3T3-E1 [16],inactive
same,Activity,Bone marrow cell [17],inactive
same,Activity,Bone marrow cell [18],inactive
O=P(O)(O)C(O)(CNc1ncc2ccccc2n1)P(=O)(O)O,Activity,J774.A1 [1],-11.108%
same,Activity,RAW264.7 [2],-25.015%
same,Activity,MG-63 [3],-15.998%
same,Activity,PC-3 [4],-23.934%
same,Activity,J774.A1 [19],inactive
same,Activity,RAW264.7 [20],inactive
same,Activity,MG-63 [21],inactive
same,Activity,PC-3 [22],inactive
same,inhibition,[23],39.9%
same,inhibition,[24],68 to 79%
same,inhibition,[25],68 to 79%
O=P(O)(O)C(O)(CCNc1ncc2ccccc2n1)P(=O)(O)O,Activity,J774.A1 [1],-59.879%
same,Activity,RAW264.7 [2],-52.95%
same,Activity,MG-63 [3],1.174%
same,Activity,PC-3 [4],-13.524%
same,Activity,J774.A1 [19],inactive
same,Activity,RAW264.7 [20],inactive
same,Activity,MG-63 [21],inactive
same,Activity,PC-3 [22],inactive
same,inhibition,[23],79%
same,inhibition,[24],68 to 79%
same,inhibition,[25],68 to 79%
same,IC50,[26],41 µM
same,Activity,Hydroxyapatite,84%

# Reference: ChEMBL document CHEMBL4265921, “Novel bisphosphonates with antiresorptive effect in bone mineralization and osteoclastogenesis” (Eur J Med Chem, 2018)
